Laboratory results: patent US8614223B2, “Pyrimidine hydroxy amide compounds as protein deacetylase inhibitors and methods of use thereof” (Acetylon Pharmaceuticals, Inc., priority 2010, dated 2013)

Assays:
HDAC6 = HDAC6 (Homo sapiens (Human), UniProt Q9UBN7); settings: read-out: HDAC6 IC50
HDAC1 = HDAC1 (Homo sapiens (Human), UniProt Q13547); assay: HDAC enzyme assay, HDAC1; settings: for HDAC1 fold over HDAC6 IC50 (selectivity for HDAC6): ratio HDAC1/HDAC6; for IC50: read-out: HDAC1 IC50
HDAC2 = HDAC2 (Homo sapiens (Human), UniProt Q92769); assay: HDAC enzyme assay, HDAC2; settings: for HDAC2 fold over HDAC6 IC50 (selectivity for HDAC6): ratio HDAC2/HDAC6; for IC50: read-out: HDAC2 IC50
Chain of HDAC2 (Q92769 whole entry): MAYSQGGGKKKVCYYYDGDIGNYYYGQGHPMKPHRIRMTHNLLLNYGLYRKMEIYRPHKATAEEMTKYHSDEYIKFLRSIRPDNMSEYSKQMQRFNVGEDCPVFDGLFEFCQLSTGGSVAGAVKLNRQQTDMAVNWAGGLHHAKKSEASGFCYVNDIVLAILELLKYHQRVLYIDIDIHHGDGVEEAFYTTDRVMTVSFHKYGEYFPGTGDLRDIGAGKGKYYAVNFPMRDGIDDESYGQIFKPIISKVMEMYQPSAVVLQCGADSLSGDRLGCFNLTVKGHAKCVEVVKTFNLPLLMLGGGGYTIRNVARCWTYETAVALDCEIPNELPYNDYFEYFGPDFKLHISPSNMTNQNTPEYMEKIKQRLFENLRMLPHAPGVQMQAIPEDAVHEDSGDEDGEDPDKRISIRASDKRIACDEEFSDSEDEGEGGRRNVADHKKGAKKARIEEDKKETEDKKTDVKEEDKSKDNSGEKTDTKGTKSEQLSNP

HDAC3 = HDAC3 (Homo sapiens (Human), UniProt O15379); assay: HDAC enzyme assay, HDAC3; settings: for HDAC3 fold over HDAC6 IC50 (selectivity for HDAC6): ratio HDAC3/HDAC6; for IC50: read-out: HDAC3 IC50
Chain of HDAC3 (O15379 whole entry): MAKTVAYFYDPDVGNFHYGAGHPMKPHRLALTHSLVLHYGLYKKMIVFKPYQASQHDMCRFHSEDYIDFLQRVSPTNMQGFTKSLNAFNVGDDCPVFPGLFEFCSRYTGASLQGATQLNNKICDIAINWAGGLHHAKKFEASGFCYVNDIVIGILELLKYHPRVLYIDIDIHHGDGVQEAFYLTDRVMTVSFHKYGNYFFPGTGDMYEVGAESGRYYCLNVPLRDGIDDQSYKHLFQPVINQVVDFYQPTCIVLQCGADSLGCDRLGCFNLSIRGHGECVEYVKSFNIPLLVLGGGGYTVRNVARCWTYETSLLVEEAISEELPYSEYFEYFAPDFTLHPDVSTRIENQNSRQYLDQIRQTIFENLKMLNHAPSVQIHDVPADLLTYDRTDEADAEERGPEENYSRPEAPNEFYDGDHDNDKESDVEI
Chain of HDAC3 (Q9Y618 395-489 partner): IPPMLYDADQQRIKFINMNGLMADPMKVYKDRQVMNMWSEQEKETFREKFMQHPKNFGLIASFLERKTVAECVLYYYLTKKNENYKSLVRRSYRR

Chain of HDAC1 (Q13547 whole entry): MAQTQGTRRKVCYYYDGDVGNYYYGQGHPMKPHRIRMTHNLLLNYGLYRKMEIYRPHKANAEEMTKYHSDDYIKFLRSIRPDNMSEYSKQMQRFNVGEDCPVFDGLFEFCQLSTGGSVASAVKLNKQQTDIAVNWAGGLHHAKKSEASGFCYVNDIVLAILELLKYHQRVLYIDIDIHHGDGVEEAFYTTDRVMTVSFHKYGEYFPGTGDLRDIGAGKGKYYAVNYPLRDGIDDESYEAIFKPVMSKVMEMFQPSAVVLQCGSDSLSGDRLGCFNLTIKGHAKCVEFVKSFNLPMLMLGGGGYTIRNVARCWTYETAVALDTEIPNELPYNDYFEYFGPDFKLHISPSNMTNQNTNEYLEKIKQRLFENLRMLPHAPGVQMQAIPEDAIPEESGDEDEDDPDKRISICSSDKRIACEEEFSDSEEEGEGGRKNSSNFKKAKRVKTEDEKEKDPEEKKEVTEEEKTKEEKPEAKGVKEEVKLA
Chain of HDAC6 (Q9UBN7 whole entry): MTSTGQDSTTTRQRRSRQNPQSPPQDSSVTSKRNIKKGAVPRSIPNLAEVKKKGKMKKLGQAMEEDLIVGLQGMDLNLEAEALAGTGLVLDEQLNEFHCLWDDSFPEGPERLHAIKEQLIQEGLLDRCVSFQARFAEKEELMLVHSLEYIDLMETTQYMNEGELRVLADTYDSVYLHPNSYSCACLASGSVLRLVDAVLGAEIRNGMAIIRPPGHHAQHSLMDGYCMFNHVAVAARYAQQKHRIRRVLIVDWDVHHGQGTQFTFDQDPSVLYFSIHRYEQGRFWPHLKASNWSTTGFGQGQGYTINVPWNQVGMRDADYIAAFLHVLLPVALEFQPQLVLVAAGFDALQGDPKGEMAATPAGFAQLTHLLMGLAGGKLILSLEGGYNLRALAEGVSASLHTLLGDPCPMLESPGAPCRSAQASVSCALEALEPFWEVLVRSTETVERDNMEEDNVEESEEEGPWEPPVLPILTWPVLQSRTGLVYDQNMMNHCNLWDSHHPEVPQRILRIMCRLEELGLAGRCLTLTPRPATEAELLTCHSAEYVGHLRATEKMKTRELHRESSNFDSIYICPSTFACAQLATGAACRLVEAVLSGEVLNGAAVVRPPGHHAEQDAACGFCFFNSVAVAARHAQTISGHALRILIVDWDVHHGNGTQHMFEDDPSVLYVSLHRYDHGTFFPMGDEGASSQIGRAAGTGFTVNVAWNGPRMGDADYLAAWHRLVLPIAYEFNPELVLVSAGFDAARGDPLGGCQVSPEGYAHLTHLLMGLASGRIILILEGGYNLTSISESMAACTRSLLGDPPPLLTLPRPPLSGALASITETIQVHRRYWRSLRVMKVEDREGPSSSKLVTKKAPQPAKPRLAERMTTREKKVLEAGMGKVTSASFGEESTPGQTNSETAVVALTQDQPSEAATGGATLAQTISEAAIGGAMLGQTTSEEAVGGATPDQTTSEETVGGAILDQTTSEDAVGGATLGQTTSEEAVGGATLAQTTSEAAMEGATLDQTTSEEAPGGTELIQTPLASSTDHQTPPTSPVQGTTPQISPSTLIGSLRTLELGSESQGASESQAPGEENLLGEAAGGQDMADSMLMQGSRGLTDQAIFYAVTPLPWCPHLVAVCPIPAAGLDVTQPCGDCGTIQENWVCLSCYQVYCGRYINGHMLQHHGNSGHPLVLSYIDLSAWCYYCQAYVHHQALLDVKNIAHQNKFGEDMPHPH

| SMILES | IC50 (HDAC6) | HDAC1 fold over HDAC6 IC50 (selectivity for HDAC6) (HDAC1) | IC50 (HDAC1) | HDAC2 fold over HDAC6 IC50 (selectivity for HDAC6) (HDAC2) | IC50 (HDAC2) | HDAC3 fold over HDAC6 IC50 (selectivity for HDAC6) (HDAC3) | IC50 (HDAC3) |
| --- | --- | --- | --- | --- | --- | --- | --- |
| O=C(NO)c1cnc(NCc2cccnc2)nc1 [Compound 106] | 4 nM | (25.3x) | 92 nM | (36.5x) | 133 nM | (47.7x) | 174 nM |
| O=C(NO)c1cnc(NCc2ccc(-c3ccccc3)cc2)nc1 [Compound 107] | 2 nM | (2.7x) | 60 nM | (3.7x) | 9 nM | (8x) | 19 nM |
| O=C(NO)c1cnc(NCc2ccccn2)nc1 [Compound 108] | 5 nM | (42.1x) | 219 nM | (60.3x) | 313 nM | (68.3x) | 355 nM |
| O=C(NO)c1cnc(NC2(Cc3ccccc3)CC2)nc1 [Compound 109] | 4 nM | (79.5x) | 324 nM | (94.3x) | 385 nM | (206.7x) | 843 nM |
| CC1(Nc2ncc(C(=O)NO)cn2)CCCCC1 [Compound 110] | 41 nM | (34.5x) | 1410 nM | (39.9x) | 1630 nM | (84.7x) | 3460 nM |
| O=C(NO)c1cnc(NC2c3ccccc3-c3ccccc32)nc1 [Compound 111] | 19 nM | (48x) | 911 nM | (40.5x) | 767 nM | (70x) | 1330 nM |
| COc1ccc(C2(Nc3ncc(C(=O)NO)cn3)CCCCC2)cc1 [Compound 122] | 20 nM | (44.8x) | 893 nM | (45x) | 898 nM | (197.8x) | 3940 nM |
| O=C(NO)c1cnc(NC2(c3ccc(F)cc3F)CC2)nc1 [Compound 123] | 3 nM | (4.8x) | 13 nM | (4.3x) | 12 nM | (9.6x) | 26 nM |
| O=C(NO)c1cnc(NC2(c3c(F)cccc3F)CC2)nc1 [Compound 124] | 1 nM | (3.6x) | 5 nM | (3.9x) | 6 nM | (5.9x) | 8 nM |
| O=C(NO)c1cnc(NC2(c3cccc(OC(F)(F)F)c3)CC2)nc1 [Compound 125] | 2 nM | (8.7x) | 18 nM | (9x) | 19 nM | (27.1x) | 57 nM |
| O=C(NO)c1cnc(NC2(c3cc(C(F)(F)F)ccc3F)CC2)nc1 [Compound 126] | 2 nM | (3.2x) | 7 nM | (3.9x) | 9 nM | (9.8x) | 22 nM |
| O=C(NO)c1cnc(NC2(c3ccc4c(c3)OCO4)CC2)nc1 [Compound 128] | 2 nM | (8.1x) | 16 nM | (8.9x) | 17 nM | (24.8x) | 49 nM |
| COc1cc(OC)cc(C2(Nc3ncc(C(=O)NO)cn3)CC2)c1 [Compound 129] | 3 nM | (12.7x) | 43 nM | (15.4x) | 52 nM | (36.6x) | 124 nM |
| O=C(NO)c1cnc(NC2(c3ccccc3)CCC2)nc1 [Compound 130] | 3 nM | (43.3x) | 140 nM | (48.9x) | 159 nM | (160.9x) | 521 nM |
| O=C(NO)c1cnc(NC2(c3cc(F)cc(F)c3)CC2)nc1 [Compound 132] | 4 nM | (24.4x) | 95 nM | (24.4x) | 96 nM | (80.8x) | 316 nM |
| COc1ccccc1C1(Nc2ncc(C(=O)NO)cn2)CC1 [Compound 133] | 3 nM | (188x) | 594 nM | (152.9x) | 483 nM | (229.8x) | 727 nM |
| O=C(NO)c1cnc(NC2(c3ccc(C(F)(F)F)cc3)CC2)nc1 [Compound 135] | 7 nM | (22.4x) | 149 nM | (17.7x) | 118 nM | (51.8x) | 344 nM |
| O=C(NO)c1cnc(NC2(c3ccc(C(F)(F)F)c(F)c3)CC2)nc1 [Compound 137] | 4 nM | (7.1x) | 27 nM | (5.5x) | 21 nM | (18.5x) | 70 nM |
| COc1ccc(C2(Nc3ncc(C(=O)NO)cn3)CC2)cc1OC [Compound 138] | 8 nM | (6.2x) | 50 nM | (6x) | 49 nM | (13.9x) | 113 nM |
| COc1ccc(Cl)cc1C1(Nc2ncc(C(=O)NO)cn2)CC1 [Compound 139] | 4 nM | (90.9x) | 386 nM | (112.8x) | 479 nM | (184x) | 782 nM |
| O=C(NO)c1cnc(NC2(c3ccc(F)c(F)c3)CC2)nc1 [Compound 140] | 7 nM | (8x) | 55 nM | (9x) | 62 nM | (18.5x) | 128 nM |
| Cc1cc(C2(Nc3ncc(C(=O)NO)cn3)CC2)ccc1F [Compound 142] | 6 nM | (3x) | 17 nM | (4x) | 23 nM | (11x) | 64 nM |
| O=C(NO)c1cnc(NC2(c3cccc(F)c3F)CC2)nc1 [Compound 143] | 4 nM | (3.4x) | 12 nM | (5x) | 17 nM | (8.4x) | 29 nM |
